Test results reported in patent publication US20170143712A1, “Methods of Treating Cancers, Immune and Autoimmune Diseases, and Inflammatory Diseases Based on BTK Occupancy and BTK Resynthesis Rate” (Acerta Pharma B.V., priority 2014, published 2017).

How the values were obtained:
Assay type in all cases: in vivo
[1] = system: established type II collagen-induced arthritis (CIA) in DBA/1 mice; test: 14-day mouse established type II collagen-induced arthritis (CIA), PO QD (Example 10); details: 0.2 mg/kg PO QD; mean(SE)
Experimental: Prior to dosing, the candidate anti-inflammatory agents were reconstituted either by vortexing or stirring. The candidate anti-inflammatory agents were administered to the DBA/1 mice daily (QD) by the oral (PO) route.
Immunization with heterologous type II collagen (CII) induces arthritis in mice of the DBA/1 strain, which is genetically susceptible to this disease. To develop an experimental model of autoimmunity more adequate for the study of human rheumatoid arthritis (RA), male DBA/1 mice were injected intradermally (ID) with bovine type II collagen to induce arthritis as reported by Trentham et al (Trentham D E, Townes A S, Kang A H Autoimmunity to type II collagen: an experimental model of arthritis. J. Exper. Med. 1977, 146:857-868) and Bendele A (Bendele A, Animal models of rheumatoid arthritis. J. Musculoskelet. Neuronal Interact. 2001, 1(4):377-85). Male DBA/1 mice (n=114) that were 6-7 weeks old and weighed approximately 18-27 grams (mean 22 g) at enrollment (arthritis day 1) were obtained from Taconic Farms, Inc. The male DBA/1 mice were at least 6 weeks old at time of first immunization and were housed 3-5/cage in shoe-box polycarbonate cages with wire tops, wood chip bedding, and suspended food and water bottles. These animals were identified by a distinct number of ink marks at the base of the tail delineating animal number. After enrollment, all cages were labeled with protocol number, group number, and animal numbers.
The male DBA/1 (n=10/group for arthritis) were anaesthetized with Isoflurane, shaved at the base of the tail, and injected intradermally with 150 μL of Freund's Complete Adjuvant (Difco, Detroit, Mich.) containing bovine type II collagen (BBP, batch #7) (1 mg/ml) at the base of the tail on day 0 and again on day 21. […] Randomization was done after swelling was obviously established in at least one paw (score of 1) and attempts were made to ensure approximately equal mean scores of 0.5-1 across groups at the time of enrollment. […] The male DBA/1 mice were terminated on arthritis day 14 (3 hours post-dose).
Efficacy evaluation of the administered anti-inflammatory agents was based on animal body weights, clinical arthritis scores, arthritis scores expressed as area under the curve (AUC), and histopathology on fore paws, hind paws, and knees. Histopathology results were expressed as 4 paws, knees only, or 6 joints (knees included). Day 13 was used as the endpoint for analysis of body weight change since the male DBA/1 mice were fasted overnight prior to necropsy on day 14.

[2] = system: established type II collagen-induced arthritis (CIA) in DBA/1 mice; test: Mouse established CIA, dosing from arthritis day 8, QD or BID (Example 11)
Description: A study was designed to determine the efficacy of a covalently acting BTK inhibitor, Formula (II) in inhibiting acute inflammation, pannus formation, cartilage destruction, and bone resorption associated with established type II collagen-induced arthritis (CIA) in DBA/1 mice. Immunization with heterologous type II collagen (CII) induces arthritis in mice of the DBA/1 strain, which is genetically susceptible to this disease. To develop an experimental model of autoimmunity more adequate for the study of human rheumatoid arthritis (RA), male DBA/1 mice were injected intradermally (ID) with bovine type II collagen to induce arthritis as reported by Trentham et al (Trentham D E, Townes A S, Kang A H Autoimmunity to type II collagen: an experimental model of arthritis. J. Exper. Med. 1977, 146:857-868) and Bendele A (Bendele A, Animal models of rheumatoid arthritis. J. Musculoskelet. Neuronal Interact. 2001, 1(4):377-85).
Following acclimatization, 6-7 week old male DBA/1 mice (n=10/group for arthritis) were immunized at the base of the tail, with 150 μL of Freund's Complete Adjuvant (Difco, Detroit, Mich.) containing 1 mg/mL bovine type II collagen by intradermal injection. Immunizations were performed day 0 and again on day 21. On study days 25-26, on day 8 following onset of arthritis, the mice were randomized into treatment groups. […] Dosing began on arthritis day 8 by oral gavage. Groups were treated with vehicle (0.4% HPMC, 0.2% Tween 80), Formula (II) at 25 mg/kg QD, Formula (II) at 12.5 mg/kg BID, or the reference compound dexamethasone (Dex) at 0.2 mg/kg QD. These animals were fasted overnight on arthritis day 20 (13 days after enrollment) prior to necropsy on arthritis day 21. Clinical scores were given for each of the paws (right front, left front, right rear, left rear) on arthritis days 1-21.
Efficacy evaluation was based on animal body weights, clinical arthritis scores, arthritis scores expressed as area under the curve (AUC), and histopathology on fore paws, hind paws, and knees. Histopathology results were expressed as 4 paws, knees only, or 6 joints (knees included). Day 19 was used as the endpoint for analysis of body weight change since the male DBA/1 mice were fasted overnight prior to necropsy on day 21.
Necropsies were conducted on fasted mice and terminal serum, fore paws, hind paws, and knees were collected into 10% neutral buffered formalin (NBF) for microscopy. Spleens were harvested and weighed.

[3] = system: systemic lupus erythematosus (SLE) in MRL/MpJFASlpr mice; test: MRL/MpJFASlpr mouse model of systemic lupus erythematosus; details: 15 mg/kg IP QD
Experimental: A study designed to determine the effects of candidate anti-inflammatory agent Formula (II) in oral (PO), daily (QD) administration in the treatment of systemic lupus erythematosus (SLE) in MRL/MpJFASlpr mice. Formula (II) was preformulated in vehicle (0.4% HPMC, 0.1% Tween 80, with simethicone for antifoaming). The female MRL/MpJFASlpr mice were dosed with vehicle or Formula (II) (1, 5, or 25 mg/kg) daily (QD) by the oral (PO) route dosing, or they were dosed QD by the intraperitoneal (IP) route with the reference compound cyclophosphamide (15 mg/kg). Prior to dosing, the candidate anti-inflammatory agent was reconstituted either by vortexing or stirring. […]
Female MRL/MpJFASlpr mice (n=50) that were 8-9 weeks old and weighed approximately 28-41 grams (mean 34 g) at enrollment (mouse age approx. 12 weeks) were obtained from The Jackson Laboratory, Bar Harbor, Me. (stock number 000485). These mice were housed 3-5/cage in shoe-box polycarbonate cages with wire tops, wood chip bedding, and suspended food and water bottles. No concurrent medications were given.
When they were 12 weeks old (study day 0), the female MRL/MpJFASlpr mice (n=10/group) were randomized by body weight into 5 groups as shown above. Treatment was initiated after randomization and continued for […] (mouse age 12 weeks to 23 weeks).
Starting on study week one, and then every week thereafter urine from each animal was tested for proteinuria using the Clinitech Multistick test strip (Bayer). The animals were also observed daily for significant clinical signs, moribundity and mortality. […] Efficacy evaluation was based on animal body weights, proteinuria analysis, lymphadenopathy scores, skin lesion scores, organ weights, anti-dsDNA titers, clinical chemistry parameters, and histopathologic evaluation of the kidneys.
Any animals showing signs of morbundity were terminated immediately. At necropsy (3 h post-dose, mouse age 23 weeks), all remaining animals were anesthetized with Isoflurane and bled via cardiac puncture for serum and plasma (Li Heparin). The animals were bled to exsanguinate then euthanized by cervical dislocation. Spleens, kidneys (paired), and lymph nodes were collected and weighed. Kidneys were collected into 10% neutral buffered formalin (NBF). Spleens were placed in RPMI 1% FBS media for splenocyte isolation. Serum samples for potential clinical chemistry analysis were stored frozen at −80° C. until shipment to Antech Diagnostics. Plasma samples were stored frozen at −80° C. for mouse antidsDNA IgG analysis by ELISA.
Blood samples were drawn via cardiac puncture from Isoflurane anesthetized animals into serum separator microtainer tubes for clinical chemistries. Samples were shipped to Antech Diagnostics for analysis.

C[C@@H]1C[C@H]2[C@@H]3CCC4=CC(=O)C=C[C@]4(C)[C@@]3(F)[C@@H](O)C[C@]2(C)[C@@]1(O)C(=O)CO [Dex, dexamethasone, reference compound]
AUC (All Paws) - Corrected for Initial Score [1]: *−5.85(0.73)
Change in Body Weight (g) [1]: −2.22(0.54) g
Histopathology Summed Score Knees [1]: *1.80(0.66)
Histopathology Summed Score Paws [1]: *0.09(0.09)
Histopathology Summed Score Six-Joints [1]: *0.66(0.21)
Paw Score AUC (All Paws) [1]: *1.30(0.37)
AUC (All Paws) - Corrected for Initial Score ([2]; 0.2 mg/kg PO QD, mean(SE)): *−29.54(2.39)
Change in Body Weight (g) Days 1-19 ([2]; 0.2 mg/kg PO QD, mean(SE)): −0.17(0.28) g
Histopathology Summed Score Knees ([2]; 0.2 mg/kg PO QD, mean(SE)): *5.23(0.89)
Histopathology Summed Score Paws ([2]; 0.2 mg/kg PO QD, mean(SE)): *7.20(1.00)
Histopathology Summed Score Six-Joints ([2]; 0.2 mg/kg PO QD, mean(SE)): *6.54(0.91)
Paw Score AUC (All Paws) ([2]; 0.2 mg/kg PO QD, mean(SE)): *16.61(2.05)
absolute spleen weights, reduction vs vehicle controls ([2]; 0.2 mg/kg QD): 156%
knee bone resorption, reduction vs vehicle controls ([2]; 0.2 mg/kg QD): 88%
knee cartilage damage, reduction vs vehicle controls ([2]; 0.2 mg/kg QD): 39%
knee inflammation, reduction vs vehicle controls ([2]; 0.2 mg/kg QD): 57%
knee pannus formation, reduction vs vehicle controls ([2]; 0.2 mg/kg QD): 86%
six joint histopathology, reduction of summed scores ([2]; 0.2 mg/kg QD): 57%
summed knee scores, reduction vs vehicle controls ([2]; 0.2 mg/kg QD): 57%

O=P1(N(CCCl)CCCl)NCCCO1 (stereo not drawn) [Cyclophosphamide, cyclophosphamide, reference compound]
Percent Survival [3]: 100%
anti-dsDNA IgG levels in plasma, reduction vs Vehicle Disease Controls [3]: 76%
Histopathology Glomerulus Diameter ([3]; All Animals, mean (SE)): *67.73 (2.10)
Histopathology Interstitial Inflammation ([3]; All Animals, mean (SE)): *0.95 (0.19)
Histopathology Summed Score ([3]; All Animals, mean (SE)): *2.18 (0.57)
Kidney (paired) Weight (g) ([3]; All Animals, mean (SE)): *0.432 (0.01) g
Change in Body Weight (g) wk 1-12 ([3]; Term Animals, mean (SE)): 3.30 (0.32) g
Histopathology Glomerulus Diameter ([3]; Term Animals, mean (SE)): *67.73 (2.10)
Histopathology Interstitial Inflammation ([3]; Term Animals, mean (SE)): *0.95 (0.19)
Histopathology Summed Score ([3]; Term Animals, mean (SE)): *2.18 (0.57)
Kidney (paired) Weight (g) ([3]; Term Animals, mean (SE)): *0.432 (0.01) g
absolute cumulative lymph node weights, reduction vs Vehicle Disease Controls ([3]; all animals): 87%
absolute kidney weights, reduction vs Vehicle Disease Controls ([3]; all animals): 23%
absolute mesenteric lymph node weights, reduction vs Vehicle Disease Controls ([3]; all animals): 76%
absolute spleen weights, reduction vs Vehicle Disease Controls ([3]; all animals): 77%
glomerulus crescent score, reduction ([3]; all animals): 100%
glomerulus diameter, reduction ([3]; all animals): 89%
glomerulus score, reduction ([3]; all animals): 88%
interstitial inflammation, reduction ([3]; all animals): 74%
percent of glomeruli with crescents, reduction ([3]; all animals): 100%
protein cast score, reduction ([3]; all animals): 90%
summed histopathology scores, reduction ([3]; all animals): 86%
vasculitis, reduction ([3]; all animals): 82%
serum clinical chemistries vs Vehicle Disease Controls ([3]; all animals or term animals only): significantly increased ALB, A/G, alkaline phosphatase (ALK), GLU, and Na/K and significantly reduced globulin (GLOB), BUN, BUN/creatinine, K, and AMY
urine protein scores vs Vehicle Disease Controls ([3]; all animals, mouse age 14-23 weeks): significantly reduced
lymphadenopathy scores vs Vehicle Disease Controls ([3]; mouse age 15-23 weeks, all or term animals): significantly reduced
skin lesion scores vs Vehicle Disease Controls ([3]; mouse age 20-23 weeks, all or term animals): significantly reduced
absolute cumulative lymph node weights, reduction vs Vehicle Disease Controls ([3]; term animals): 90%
absolute kidney weights, reduction vs Vehicle Disease Controls ([3]; term animals): 32%
absolute mesenteric lymph node weights, reduction vs Vehicle Disease Controls ([3]; term animals): 82%
absolute spleen weights, reduction vs Vehicle Disease Controls ([3]; term animals): 82%
glomerulus crescent score, reduction ([3]; term animals only): 100%
glomerulus diameter, reduction ([3]; term animals only): 85%
glomerulus score, reduction ([3]; term animals only): 86%
interstitial inflammation, reduction ([3]; term animals only): 70%
percent of glomeruli with crescents, reduction ([3]; term animals only): 100%
protein cast score, reduction ([3]; term animals only): 86%
summed histopathology scores, reduction ([3]; term animals only): 82%
vasculitis, reduction ([3]; term animals only): 80%
urine protein scores vs Vehicle Disease Controls ([3]; term animals only, mouse age 14-16 and 19-23 weeks): significantly reduced
body weight gain ([3]; week 1 to week 5): 1.03 g
